pIC50: −log10 of the molar value.
What was measured:
Clint determination = assay type: in vitro ADME; conditions: human, microsomes, pH 7.4, human microsomes, read-out: Clint (μL/min/mg) Human
GSK3BETA = biological target: T1, GSK3BETA (Homo sapiens, UniProt P49841); test: Millipore kinase panel; assay type: biochemical; conditions: read-out: % Control
T1 construct: purchased Millipore

HCK = biological target: T2, HCK (Homo sapiens, UniProt P08631); test: Millipore kinase panel; assay type: biochemical; conditions: ATP at Km, read-out: % Control
T2 construct: purchased Millipore KinaseProfiler (kinases); Cerep (receptors and ion channels)

MAPK2 = biological target: T3, MAPK2 (Homo sapiens, UniProt P28482); test: Millipore kinase panel; assay type: biochemical; conditions: ATP at Km, read-out: % Control
T3 construct: purchased Millipore KinaseProfiler (kinases); Cerep (receptors and ion channels)

MST1 = biological target: T4, MST1 (Homo sapiens, UniProt Q13043); test: Millipore kinase panel; assay type: biochemical; conditions: read-out: % Control
T4 construct: purchased Millipore KinaseProfiler (kinases); Cerep (receptors and ion channels)

PAK3 = biological target: T5, PAK3 (Homo sapiens, UniProt O75914); test: Millipore kinase panel; assay type: biochemical; conditions: read-out: % Control
T5 construct: purchased Millipore KinaseProfiler (kinases); Cerep (receptors and ion channels)

TCF1 or TCF4 = test: Endogenous TCF1 and TCF4 levels in COLO205-F1756 clone 4; assay type: cell-based, human; conditions: COLO205-F1756 clone 4, 350 nM
Excerpt: Supplementary Figure S2. Levels of TCF1 and TCF4 in response to treatment of COLO205-
F1756 clone 4 (an APC-mutant human colorectal cancer cell line engineered to express a
(1 picture or pasted object on this page, not shown here)

V1a (h) = biological target: T6, V1a (h) (Homo sapiens, UniProt P37288); test: CEREP binding panel; conditions: agonist radioligand, read-out: % Inhibition of Control Specific Binding
T6 construct: purchased Millipore KinaseProfiler (kinases); Cerep (receptors and ion channels)

AURKA = biological target: T7, AURKA (Homo sapiens, UniProt O14965); test: Millipore kinase panel; assay type: biochemical; conditions: read-out: % Control
T7 construct: purchased Millipore KinaseProfiler (kinases); Cerep (receptors and ion channels)

CDK2/CYCLINE = biological target: T8, CDK2/CYCLINE (Homo sapiens, UniProt P24941); test: Millipore kinase panel; assay type: biochemical; conditions: read-out: % Control
T8 construct: purchased Millipore KinaseProfiler (kinases); Cerep (receptors and ion channels)

CDK5/P35 = biological target: T9, CDK5/P35 (Homo sapiens, UniProt Q00535); test: Millipore kinase panel; assay type: biochemical; conditions: read-out: % Control
T9 construct: purchased Millipore KinaseProfiler (kinases); Cerep (receptors and ion channels)

CK1DELTA = biological target: T10, CK1DELTA (Homo sapiens, UniProt P48730); test: Millipore kinase panel; assay type: biochemical; conditions: read-out: % Control
T10 construct: purchased Millipore KinaseProfiler (kinases); Cerep (receptors and ion channels)

CK2ALPHA2 = biological target: T11, CK2ALPHA2 (Homo sapiens, UniProt P19784); test: Millipore kinase panel; assay type: biochemical; conditions: read-out: % Control
T11 construct: purchased Millipore KinaseProfiler (kinases); Cerep (receptors and ion channels)

DDR2 = biological target: T12, DDR2 (Homo sapiens, UniProt Q16832); test: Millipore kinase panel; assay type: biochemical; conditions: read-out: % Control
T12 construct: purchased Millipore KinaseProfiler (kinases); Cerep (receptors and ion channels)

EGFR(L861Q) = biological target: T13, EGFR(L861Q) (Homo sapiens, UniProt P00533, L861Q); test: Millipore kinase panel; assay type: biochemical; conditions: read-out: % Control
T13 construct: purchased Millipore KinaseProfiler (kinases); Cerep (receptors and ion channels)

EPHA4 = biological target: T14, EPHA4 (Homo sapiens, UniProt P54764); test: Millipore kinase panel; assay type: biochemical; conditions: read-out: % Control
T14 construct: purchased Millipore KinaseProfiler (kinases); Cerep (receptors and ion channels)

IGF-1R = biological target: T15, IGF-1R (Homo sapiens, UniProt P08069); test: Millipore kinase panel; assay type: biochemical; conditions: read-out: % Control
T15 construct: purchased Millipore KinaseProfiler (kinases); Cerep (receptors and ion channels)

IR = biological target: T16, IR (Homo sapiens, UniProt P06213); test: Millipore kinase panel; assay type: biochemical; conditions: read-out: % Control
T16 construct: purchased Millipore KinaseProfiler (kinases); Cerep (receptors and ion channels)

NEK11 = biological target: T17, NEK11 (Homo sapiens, UniProt Q8NG66); test: Millipore kinase panel; assay type: biochemical; conditions: read-out: % Control
T17 construct: purchased Millipore KinaseProfiler (kinases); Cerep (receptors and ion channels)

PKBGAMMA = biological target: T18, PKBGAMMA (Homo sapiens, UniProt Q9Y243); test: Millipore kinase panel; assay type: biochemical; conditions: read-out: % Control
T18 construct: purchased Millipore KinaseProfiler (kinases); Cerep (receptors and ion channels)

PKCDELTA = biological target: T19, PKCDELTA (Homo sapiens, UniProt Q05655); test: Millipore kinase panel; assay type: biochemical; conditions: read-out: % Control
T19 construct: purchased Millipore KinaseProfiler (kinases); Cerep (receptors and ion channels)

PKCEPSILON = biological target: T20, PKCEPSILON (Homo sapiens, UniProt Q02156); test: Millipore kinase panel; assay type: biochemical; conditions: read-out: % Control
T20 construct: purchased Millipore KinaseProfiler (kinases); Cerep (receptors and ion channels)

PKCIOTA = biological target: T21, PKCIOTA (Homo sapiens, UniProt P41743); test: Millipore kinase panel; assay type: biochemical; conditions: read-out: % Control
T21 construct: purchased Millipore KinaseProfiler (kinases); Cerep (receptors and ion channels)

SAPK2A(T106M) = biological target: T22, SAPK2A(T106M) (Homo sapiens, UniProt Q16539, T106M); test: Millipore kinase panel; assay type: biochemical; conditions: read-out: % Control
T22 construct: purchased Millipore KinaseProfiler (kinases); Cerep (receptors and ion channels)

CK1GAMMA3 = biological target: T23, CK1GAMMA3 (Homo sapiens, UniProt Q9Y6M4); test: Millipore kinase panel; assay type: biochemical; conditions: read-out: % Control
T23 construct: purchased Millipore KinaseProfiler (kinases); Cerep (receptors and ion channels)

CAMKIIGAMMA = biological target: T24, CAMKIIGAMMA (Homo sapiens, UniProt Q13555); test: Millipore kinase panel; assay type: biochemical; conditions: read-out: % Control
T24 construct: purchased Millipore KinaseProfiler (kinases); Cerep (receptors and ion channels)

EGFR(T790M,L858R) = biological target: T25, EGFR(T790M,L858R) (Homo sapiens, UniProt P00533, L858R/T790M); test: Millipore kinase panel; assay type: biochemical; conditions: read-out: % Control
T25 construct: purchased Millipore KinaseProfiler (kinases); Cerep (receptors and ion channels)

FGFR1(V561M) = biological target: T26, FGFR1(V561M) (Homo sapiens, UniProt P11362, V561M); test: Millipore kinase panel; assay type: biochemical; conditions: read-out: % Control
T26 construct: purchased Millipore KinaseProfiler (kinases); Cerep (receptors and ion channels)

ABL (Q252H) = biological target: T27, ABL (Q252H) (Homo sapiens, UniProt P00519, Q252H); test: Millipore kinase panel; assay type: biochemical; conditions: read-out: % Control
T27 construct: purchased Millipore KinaseProfiler (kinases); Cerep (receptors and ion channels)

ABL (M351T) = biological target: T28, ABL (M351T) (Homo sapiens, UniProt P00519, M351T); test: Millipore kinase panel; assay type: biochemical; conditions: read-out: % Control
T28 construct: purchased Millipore KinaseProfiler (kinases); Cerep (receptors and ion channels)

RET (V804L) = biological target: T29, RET (V804L) (Homo sapiens, UniProt P07949, V804L); test: Millipore kinase panel; assay type: biochemical; conditions: read-out: % Control
T29 construct: purchased Millipore KinaseProfiler (kinases); Cerep (receptors and ion channels)

RET(V804M) = biological target: T30, RET(V804M) (Homo sapiens, UniProt P07949, V804M); test: Millipore kinase panel; assay type: biochemical; conditions: read-out: % Control
T30 construct: purchased Millipore KinaseProfiler (kinases); Cerep (receptors and ion channels)

TIE2(Y897S) = biological target: T31, TIE2(Y897S) (Homo sapiens, UniProt Q02763, Y897S); test: Millipore kinase panel; assay type: biochemical; conditions: read-out: % Control
T31 construct: purchased Millipore KinaseProfiler (kinases); Cerep (receptors and ion channels)

MTOR/FKBP12 = biological target: T32, MTOR/FKBP12 (Homo sapiens, UniProt P42345); test: Millipore kinase panel; assay type: biochemical; conditions: read-out: % Control
T32 construct: purchased Millipore KinaseProfiler (kinases); Cerep (receptors and ion channels)

PI3 KINASE (P110B/P85B) = biological target: T33, PI3 KINASE (P110B/P85B) (Mus musculus, UniProt Q8BTI9); test: Millipore kinase panel; assay type: biochemical; conditions: read-out: % Control
T33 construct: purchased Millipore KinaseProfiler (kinases); Cerep (receptors and ion channels)

FMS(Y969C) = biological target: T34, FMS(Y969C) (Homo sapiens, UniProt P07333, Y969C); test: Millipore kinase panel; assay type: biochemical; conditions: read-out: % Control
T34 construct: purchased Millipore KinaseProfiler (kinases); Cerep (receptors and ion channels)

PRKAA2 = biological target: T35, PRKAA2 (Homo sapiens, UniProt P54646); test: Millipore kinase panel; assay type: biochemical; conditions: read-out: % Control
T35 construct: purchased Millipore KinaseProfiler (kinases); Cerep (receptors and ion channels)

hERG = hERG (Homo sapiens, UniProt Q12809); test: hERG inhibition
CYP450 1A2 = CYP450 1A2 (Homo sapiens, UniProt P05177); test: CYP450 inhibition

T5 sequence (O75914 whole entry): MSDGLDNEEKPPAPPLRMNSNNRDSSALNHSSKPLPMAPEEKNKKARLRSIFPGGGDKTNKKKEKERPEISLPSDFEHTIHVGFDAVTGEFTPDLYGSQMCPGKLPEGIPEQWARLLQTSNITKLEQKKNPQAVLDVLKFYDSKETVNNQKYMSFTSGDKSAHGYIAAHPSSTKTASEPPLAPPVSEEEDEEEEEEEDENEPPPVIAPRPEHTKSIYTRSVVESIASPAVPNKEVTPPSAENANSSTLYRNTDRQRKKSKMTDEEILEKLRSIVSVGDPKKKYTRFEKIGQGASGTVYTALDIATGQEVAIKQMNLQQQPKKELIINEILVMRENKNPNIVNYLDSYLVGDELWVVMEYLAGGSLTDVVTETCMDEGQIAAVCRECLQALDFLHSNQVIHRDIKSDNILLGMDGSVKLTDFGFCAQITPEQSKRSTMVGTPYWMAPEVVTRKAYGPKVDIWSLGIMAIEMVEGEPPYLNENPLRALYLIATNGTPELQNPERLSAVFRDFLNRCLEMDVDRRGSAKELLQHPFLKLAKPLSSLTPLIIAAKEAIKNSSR
Sequence of hERG (Q12809 whole entry): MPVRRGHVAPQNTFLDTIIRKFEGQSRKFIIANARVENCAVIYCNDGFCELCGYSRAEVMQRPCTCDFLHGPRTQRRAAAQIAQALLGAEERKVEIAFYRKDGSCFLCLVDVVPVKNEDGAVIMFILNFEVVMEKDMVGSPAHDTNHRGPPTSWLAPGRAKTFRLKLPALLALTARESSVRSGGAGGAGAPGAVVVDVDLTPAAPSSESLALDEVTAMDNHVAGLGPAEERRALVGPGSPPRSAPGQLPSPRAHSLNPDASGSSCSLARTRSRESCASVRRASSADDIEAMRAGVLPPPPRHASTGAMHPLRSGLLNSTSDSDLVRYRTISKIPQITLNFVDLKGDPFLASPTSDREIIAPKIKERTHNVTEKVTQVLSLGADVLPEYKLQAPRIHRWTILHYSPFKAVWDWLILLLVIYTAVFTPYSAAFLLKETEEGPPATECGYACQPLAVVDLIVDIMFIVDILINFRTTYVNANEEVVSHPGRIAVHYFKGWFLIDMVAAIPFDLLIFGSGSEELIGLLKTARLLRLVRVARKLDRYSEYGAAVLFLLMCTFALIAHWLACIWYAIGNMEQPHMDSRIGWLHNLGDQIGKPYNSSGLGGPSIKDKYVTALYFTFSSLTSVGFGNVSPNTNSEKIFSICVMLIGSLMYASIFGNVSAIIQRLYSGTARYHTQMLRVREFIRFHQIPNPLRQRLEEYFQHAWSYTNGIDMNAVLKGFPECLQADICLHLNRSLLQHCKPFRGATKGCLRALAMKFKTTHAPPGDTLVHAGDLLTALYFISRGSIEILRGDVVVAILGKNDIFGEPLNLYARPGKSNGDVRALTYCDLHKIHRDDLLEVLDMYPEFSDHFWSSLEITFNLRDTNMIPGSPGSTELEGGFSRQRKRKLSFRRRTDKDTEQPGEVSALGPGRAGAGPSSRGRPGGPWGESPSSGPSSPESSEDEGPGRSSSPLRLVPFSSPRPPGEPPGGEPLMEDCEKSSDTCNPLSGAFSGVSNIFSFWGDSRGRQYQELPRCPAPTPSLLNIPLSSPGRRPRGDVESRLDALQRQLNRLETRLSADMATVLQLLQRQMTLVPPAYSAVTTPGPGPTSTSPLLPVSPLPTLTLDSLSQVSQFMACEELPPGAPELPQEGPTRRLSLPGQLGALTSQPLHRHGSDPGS
T9 sequence (Q00535 whole entry): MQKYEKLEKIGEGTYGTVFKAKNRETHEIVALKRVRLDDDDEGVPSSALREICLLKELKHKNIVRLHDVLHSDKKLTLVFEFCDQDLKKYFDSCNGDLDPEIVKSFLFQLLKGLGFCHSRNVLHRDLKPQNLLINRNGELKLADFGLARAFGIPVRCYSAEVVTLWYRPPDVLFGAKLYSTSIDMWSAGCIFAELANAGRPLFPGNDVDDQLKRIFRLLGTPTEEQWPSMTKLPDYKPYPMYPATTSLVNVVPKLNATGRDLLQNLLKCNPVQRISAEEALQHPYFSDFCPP
T9 sequence (Q15078 whole entry partner): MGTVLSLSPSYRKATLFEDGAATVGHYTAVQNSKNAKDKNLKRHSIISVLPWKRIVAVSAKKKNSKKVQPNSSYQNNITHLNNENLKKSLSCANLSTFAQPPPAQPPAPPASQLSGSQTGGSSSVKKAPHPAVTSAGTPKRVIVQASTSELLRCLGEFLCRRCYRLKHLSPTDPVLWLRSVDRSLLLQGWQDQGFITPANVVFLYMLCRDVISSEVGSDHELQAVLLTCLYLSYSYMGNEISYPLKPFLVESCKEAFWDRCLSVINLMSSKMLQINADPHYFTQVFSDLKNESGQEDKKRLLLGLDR
T23 sequence (Q9Y6M4 whole entry): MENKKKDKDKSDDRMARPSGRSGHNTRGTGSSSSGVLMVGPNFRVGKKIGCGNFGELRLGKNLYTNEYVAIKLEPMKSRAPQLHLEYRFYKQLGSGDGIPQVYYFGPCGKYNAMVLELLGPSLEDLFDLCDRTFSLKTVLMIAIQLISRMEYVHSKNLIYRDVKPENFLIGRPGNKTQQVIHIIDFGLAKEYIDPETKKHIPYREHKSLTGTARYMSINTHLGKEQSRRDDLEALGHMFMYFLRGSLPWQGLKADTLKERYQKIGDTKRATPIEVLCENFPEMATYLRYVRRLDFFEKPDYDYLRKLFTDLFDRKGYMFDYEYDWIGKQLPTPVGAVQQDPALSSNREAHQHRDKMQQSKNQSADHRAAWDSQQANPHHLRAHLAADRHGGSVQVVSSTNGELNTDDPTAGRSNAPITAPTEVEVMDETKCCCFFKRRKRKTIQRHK
T19 sequence (Q05655 whole entry): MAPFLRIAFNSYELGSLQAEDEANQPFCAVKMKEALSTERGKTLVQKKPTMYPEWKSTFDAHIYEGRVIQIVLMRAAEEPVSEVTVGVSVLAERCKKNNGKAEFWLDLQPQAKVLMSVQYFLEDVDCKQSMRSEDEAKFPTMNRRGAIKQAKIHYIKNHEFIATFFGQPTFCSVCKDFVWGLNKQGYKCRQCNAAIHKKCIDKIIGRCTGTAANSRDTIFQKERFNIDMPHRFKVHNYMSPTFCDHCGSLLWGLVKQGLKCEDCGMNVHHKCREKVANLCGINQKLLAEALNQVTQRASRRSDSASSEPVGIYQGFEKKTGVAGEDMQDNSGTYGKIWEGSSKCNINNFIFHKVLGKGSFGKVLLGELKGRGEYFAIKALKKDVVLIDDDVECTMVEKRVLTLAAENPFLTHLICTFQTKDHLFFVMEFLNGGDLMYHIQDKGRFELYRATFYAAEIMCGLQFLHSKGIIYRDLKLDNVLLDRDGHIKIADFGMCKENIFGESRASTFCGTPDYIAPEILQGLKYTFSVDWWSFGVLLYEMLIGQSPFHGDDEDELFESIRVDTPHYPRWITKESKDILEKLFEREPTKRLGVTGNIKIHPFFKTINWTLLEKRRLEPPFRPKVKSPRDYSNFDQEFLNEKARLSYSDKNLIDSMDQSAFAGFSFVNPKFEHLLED
T26 sequence (P11362 22-822 V561M): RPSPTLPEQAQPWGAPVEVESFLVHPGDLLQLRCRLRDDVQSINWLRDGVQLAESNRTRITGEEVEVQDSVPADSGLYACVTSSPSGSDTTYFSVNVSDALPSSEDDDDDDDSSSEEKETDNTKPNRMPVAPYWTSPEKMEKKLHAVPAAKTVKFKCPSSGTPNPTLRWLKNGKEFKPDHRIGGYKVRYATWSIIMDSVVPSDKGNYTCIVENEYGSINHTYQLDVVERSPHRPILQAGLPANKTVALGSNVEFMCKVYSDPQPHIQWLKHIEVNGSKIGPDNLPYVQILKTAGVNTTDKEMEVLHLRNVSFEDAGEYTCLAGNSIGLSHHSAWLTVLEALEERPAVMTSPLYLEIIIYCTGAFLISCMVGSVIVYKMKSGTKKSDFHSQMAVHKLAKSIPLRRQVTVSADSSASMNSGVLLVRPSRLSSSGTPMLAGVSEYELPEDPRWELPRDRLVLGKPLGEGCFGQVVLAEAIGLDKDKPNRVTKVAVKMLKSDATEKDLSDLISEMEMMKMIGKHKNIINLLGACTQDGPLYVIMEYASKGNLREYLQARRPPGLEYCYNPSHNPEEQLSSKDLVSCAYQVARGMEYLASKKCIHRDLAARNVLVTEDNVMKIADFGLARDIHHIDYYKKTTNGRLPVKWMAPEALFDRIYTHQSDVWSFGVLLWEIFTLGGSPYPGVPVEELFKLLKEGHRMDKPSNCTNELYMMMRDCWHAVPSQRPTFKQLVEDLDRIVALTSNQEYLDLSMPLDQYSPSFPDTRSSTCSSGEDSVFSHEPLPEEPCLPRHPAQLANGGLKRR
T17 sequence (Q8NG66 whole entry): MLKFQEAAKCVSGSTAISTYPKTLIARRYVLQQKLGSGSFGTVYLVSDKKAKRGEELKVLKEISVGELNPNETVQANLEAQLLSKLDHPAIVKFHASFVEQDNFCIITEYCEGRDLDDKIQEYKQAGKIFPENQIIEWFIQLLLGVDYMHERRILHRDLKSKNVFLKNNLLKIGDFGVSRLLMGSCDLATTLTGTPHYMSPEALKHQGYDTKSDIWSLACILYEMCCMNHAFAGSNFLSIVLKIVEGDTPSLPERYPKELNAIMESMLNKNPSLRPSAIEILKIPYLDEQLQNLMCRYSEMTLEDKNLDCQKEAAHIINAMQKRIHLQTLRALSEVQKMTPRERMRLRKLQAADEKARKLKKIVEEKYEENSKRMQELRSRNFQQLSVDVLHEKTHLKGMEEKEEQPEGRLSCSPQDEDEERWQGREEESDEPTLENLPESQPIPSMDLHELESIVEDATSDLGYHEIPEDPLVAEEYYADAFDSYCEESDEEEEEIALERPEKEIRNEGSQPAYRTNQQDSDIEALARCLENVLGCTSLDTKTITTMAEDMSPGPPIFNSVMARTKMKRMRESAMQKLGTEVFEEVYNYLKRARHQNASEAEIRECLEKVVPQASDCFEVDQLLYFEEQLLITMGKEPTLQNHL

SMILES: O=C1NCCC12CCN(c1c(Cl)cncc1-c1ccc(N3CCOCC3)cc1)CC2 [Compound 44, 8-(3-Chloro-5-(4-morpholin-4-ylphenyl)pyridin-4-yl)-2,8-diazaspiro[4.5]decan-1-one]
- microsomal CLint at 1 μM (Clint determination): 115 µL/min/mg
- remaining activity at 1 µM (GSK3BETA): -25%
- remaining activity at 1 µM (HCK): 3%
- remaining activity at 1 µM (MAPK2): 10%
- remaining activity at 1 µM (MST1): 14%
- remaining activity at 1 µM (PAK3): 17%

SMILES: Cn1cc(-c2ccc(-c3cncc(Cl)c3N3CCC4(CCNC4=O)CC3)cc2)cn1 [Compound 74, 8-(3-Chloro-5-(4-(1-methyl-1H-pyrazol-4-yl)phenyl)pyridin-4-yl)-2,8-diazaspiro[4.5]decan-1-one]
- effect on endogenous levels of TCF1 or TCF4 (TCF1 or TCF4): did not affect endogenous levels of TCF1 or TCF4
- inhibition at 10 µM (V1a (h)): -7%
- remaining activity at 1 µM (AURKA): 6%
- remaining activity at 1 µM (CDK2/CYCLINE): -14%
- remaining activity at 1 µM (CDK5/P35): -16%
- remaining activity at 1 µM (CK1DELTA): 5%
- remaining activity at 1 µM (CK2ALPHA2): -1%
- remaining activity at 1 µM (DDR2): 5%
- remaining activity at 1 µM (EGFR(L861Q)): 0%
- remaining activity at 1 µM (EPHA4): -26%
- remaining activity at 1 µM (IGF-1R): 5%
- remaining activity at 1 µM (IR): -8%
- remaining activity at 1 µM (NEK11): 7%
- remaining activity at 1 µM (PKBGAMMA): -5%
- remaining activity at 1 µM (PKCDELTA): -37%
- remaining activity at 1 µM (PKCEPSILON): -22%
- remaining activity at 1 µM (PKCIOTA): -25%
- remaining activity at 1 µM (SAPK2A(T106M)): -8%
- remaining activity at 1 µM (CK1GAMMA3): 1%
- remaining activity at 1 µM (CAMKIIGAMMA): 1%
- remaining activity at 1 µM (EGFR(T790M,L858R)): -4%
- remaining activity at 1 µM (FGFR1(V561M)): -8%
- remaining activity at 1 µM (ABL (Q252H)): -1%
- remaining activity at 1 µM (ABL (M351T)): 5%
- remaining activity at 1 µM (RET (V804L)): -8%
- remaining activity at 1 µM (RET(V804M)): -8%
- remaining activity at 1 µM (TIE2(Y897S)): 4%
- remaining activity at 1 µM (MTOR/FKBP12): 11%
- remaining activity at 1 µM (PI3 KINASE (P110B/P85B)): -1%
- remaining activity at 1 µM (FMS(Y969C)): -31%
- remaining activity at 1 µM (PRKAA2): 2%
- pIC50 (hERG): < 5.00
- pIC50 (CYP450 1A2): < 4.70
